Measured values published in ChEMBL document CHEMBL5291721, “A preclinical secondary pharmacology resource illuminates target-adverse drug reaction associations of marketed drugs” (Nat Commun, 2023).

Assays:
Androgen receptor [1] = target: T1, Androgen receptor (Rattus norvegicus, UniProt P15207); type: functional
T1 sequence (P15207 whole entry): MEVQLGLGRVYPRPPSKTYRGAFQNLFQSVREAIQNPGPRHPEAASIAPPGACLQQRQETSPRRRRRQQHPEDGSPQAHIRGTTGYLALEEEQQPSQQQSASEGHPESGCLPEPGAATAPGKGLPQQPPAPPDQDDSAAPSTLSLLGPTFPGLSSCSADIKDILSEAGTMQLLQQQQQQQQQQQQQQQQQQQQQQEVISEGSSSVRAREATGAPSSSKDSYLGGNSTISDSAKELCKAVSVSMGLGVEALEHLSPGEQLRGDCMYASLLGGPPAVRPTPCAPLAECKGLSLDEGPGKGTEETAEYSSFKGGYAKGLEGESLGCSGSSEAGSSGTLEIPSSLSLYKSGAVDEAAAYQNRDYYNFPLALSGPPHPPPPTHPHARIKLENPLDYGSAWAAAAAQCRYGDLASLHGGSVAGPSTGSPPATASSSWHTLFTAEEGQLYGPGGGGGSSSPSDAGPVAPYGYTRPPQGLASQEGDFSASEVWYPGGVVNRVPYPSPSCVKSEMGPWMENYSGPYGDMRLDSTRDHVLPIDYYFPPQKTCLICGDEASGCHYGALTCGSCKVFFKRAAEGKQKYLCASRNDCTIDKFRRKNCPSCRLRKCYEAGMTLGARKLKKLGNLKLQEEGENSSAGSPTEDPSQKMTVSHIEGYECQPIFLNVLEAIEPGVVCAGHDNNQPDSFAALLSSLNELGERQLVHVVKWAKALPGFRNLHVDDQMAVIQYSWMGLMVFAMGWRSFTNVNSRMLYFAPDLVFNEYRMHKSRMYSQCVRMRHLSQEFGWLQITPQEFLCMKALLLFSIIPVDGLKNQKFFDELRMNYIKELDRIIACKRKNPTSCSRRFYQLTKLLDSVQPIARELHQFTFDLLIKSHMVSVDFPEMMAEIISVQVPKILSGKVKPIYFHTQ

Androgen receptor [2] = target: T1, Androgen receptor; type: functional; remark: listed apart in the source
[3] = target: Gamma-aminobutyric acid receptor subunit alpha-1/alpha-2/beta-2/gamma-2 (Homo sapiens, UniProt P14867+P18507+P47869+P47870); type: functional, cell-based
[4] = target: Sodium channel protein type 5 subunit alpha (Homo sapiens, UniProt Q14524); type: functional, cell-based
[5] = target: Neurotensin receptor type 1 (Homo sapiens, UniProt P30989)
Sequence of Neurotensin receptor type 1 (P30989 whole entry): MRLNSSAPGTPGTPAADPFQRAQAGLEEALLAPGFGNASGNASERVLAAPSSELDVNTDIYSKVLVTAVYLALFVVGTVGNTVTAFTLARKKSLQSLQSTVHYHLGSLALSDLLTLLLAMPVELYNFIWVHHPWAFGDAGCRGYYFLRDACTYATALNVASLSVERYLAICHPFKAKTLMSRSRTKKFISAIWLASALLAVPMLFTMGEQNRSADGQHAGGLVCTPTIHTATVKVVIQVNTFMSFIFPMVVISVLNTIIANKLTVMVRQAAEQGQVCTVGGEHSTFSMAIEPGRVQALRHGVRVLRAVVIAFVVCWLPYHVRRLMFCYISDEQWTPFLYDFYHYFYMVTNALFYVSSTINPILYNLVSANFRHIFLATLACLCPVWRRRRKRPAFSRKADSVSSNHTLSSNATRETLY

Glucagon receptor = Glucagon receptor (Homo sapiens, UniProt P47871)
Sequence of Glucagon receptor (P47871 whole entry): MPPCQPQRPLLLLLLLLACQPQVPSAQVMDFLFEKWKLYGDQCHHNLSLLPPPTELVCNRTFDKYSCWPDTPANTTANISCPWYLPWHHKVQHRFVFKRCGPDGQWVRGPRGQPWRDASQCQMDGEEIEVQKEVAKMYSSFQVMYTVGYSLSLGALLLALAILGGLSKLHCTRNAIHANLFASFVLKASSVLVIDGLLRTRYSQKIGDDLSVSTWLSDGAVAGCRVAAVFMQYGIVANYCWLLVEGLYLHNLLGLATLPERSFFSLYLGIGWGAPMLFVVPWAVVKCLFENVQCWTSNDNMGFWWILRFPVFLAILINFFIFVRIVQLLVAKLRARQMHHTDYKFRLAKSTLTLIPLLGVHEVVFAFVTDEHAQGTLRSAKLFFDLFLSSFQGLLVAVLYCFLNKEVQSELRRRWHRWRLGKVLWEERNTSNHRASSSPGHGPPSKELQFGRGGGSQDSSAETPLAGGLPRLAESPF

D(4) dopamine receptor = target: T2, D(4) dopamine receptor (Homo sapiens, UniProt P21917)
T2 sequence (P21917 whole entry): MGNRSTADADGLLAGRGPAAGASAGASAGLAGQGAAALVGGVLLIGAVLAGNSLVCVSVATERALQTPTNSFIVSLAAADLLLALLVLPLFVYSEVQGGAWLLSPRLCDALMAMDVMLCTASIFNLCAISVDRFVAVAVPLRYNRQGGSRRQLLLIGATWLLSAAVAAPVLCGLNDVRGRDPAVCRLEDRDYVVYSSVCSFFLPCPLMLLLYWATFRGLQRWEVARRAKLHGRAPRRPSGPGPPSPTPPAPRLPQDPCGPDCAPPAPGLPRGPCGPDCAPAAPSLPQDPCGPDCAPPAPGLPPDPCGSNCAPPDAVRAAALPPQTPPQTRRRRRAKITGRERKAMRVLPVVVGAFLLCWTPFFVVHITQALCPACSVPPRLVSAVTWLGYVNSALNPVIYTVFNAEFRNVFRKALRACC

[6] = target: 5-hydroxytryptamine receptor 2B (Homo sapiens, UniProt P41595)
Sequence of 5-hydroxytryptamine receptor 2B (P41595 whole entry): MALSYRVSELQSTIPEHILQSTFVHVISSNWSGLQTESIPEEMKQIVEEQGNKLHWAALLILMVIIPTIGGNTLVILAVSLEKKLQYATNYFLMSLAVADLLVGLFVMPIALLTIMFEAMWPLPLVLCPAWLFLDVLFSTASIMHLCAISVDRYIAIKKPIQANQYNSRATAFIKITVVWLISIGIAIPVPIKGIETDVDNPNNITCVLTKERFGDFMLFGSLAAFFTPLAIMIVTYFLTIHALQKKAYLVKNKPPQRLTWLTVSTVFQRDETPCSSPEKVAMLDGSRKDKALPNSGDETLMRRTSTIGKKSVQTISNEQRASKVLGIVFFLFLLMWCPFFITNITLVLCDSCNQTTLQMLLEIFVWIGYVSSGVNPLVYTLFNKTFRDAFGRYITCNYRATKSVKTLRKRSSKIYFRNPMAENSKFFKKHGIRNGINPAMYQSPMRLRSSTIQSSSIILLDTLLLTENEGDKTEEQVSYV

D(1A) dopamine receptor = D(1A) dopamine receptor (Homo sapiens, UniProt P21728)
Sequence of D(1A) dopamine receptor (P21728 whole entry): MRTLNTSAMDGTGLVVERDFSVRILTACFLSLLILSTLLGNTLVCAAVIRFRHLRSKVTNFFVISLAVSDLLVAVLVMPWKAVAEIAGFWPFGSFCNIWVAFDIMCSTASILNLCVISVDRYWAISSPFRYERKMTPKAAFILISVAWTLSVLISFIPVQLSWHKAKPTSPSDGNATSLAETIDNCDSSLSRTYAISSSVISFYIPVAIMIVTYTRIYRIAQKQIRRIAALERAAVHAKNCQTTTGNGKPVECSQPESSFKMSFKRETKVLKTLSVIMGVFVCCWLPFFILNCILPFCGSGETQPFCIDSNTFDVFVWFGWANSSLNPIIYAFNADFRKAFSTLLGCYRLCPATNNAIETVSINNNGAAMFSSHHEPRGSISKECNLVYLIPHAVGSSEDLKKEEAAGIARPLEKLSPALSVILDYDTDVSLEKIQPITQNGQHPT

[7] = target: T3, Alpha-2A adrenergic receptor (Homo sapiens, UniProt P08913)
T3 sequence (P08913 whole entry): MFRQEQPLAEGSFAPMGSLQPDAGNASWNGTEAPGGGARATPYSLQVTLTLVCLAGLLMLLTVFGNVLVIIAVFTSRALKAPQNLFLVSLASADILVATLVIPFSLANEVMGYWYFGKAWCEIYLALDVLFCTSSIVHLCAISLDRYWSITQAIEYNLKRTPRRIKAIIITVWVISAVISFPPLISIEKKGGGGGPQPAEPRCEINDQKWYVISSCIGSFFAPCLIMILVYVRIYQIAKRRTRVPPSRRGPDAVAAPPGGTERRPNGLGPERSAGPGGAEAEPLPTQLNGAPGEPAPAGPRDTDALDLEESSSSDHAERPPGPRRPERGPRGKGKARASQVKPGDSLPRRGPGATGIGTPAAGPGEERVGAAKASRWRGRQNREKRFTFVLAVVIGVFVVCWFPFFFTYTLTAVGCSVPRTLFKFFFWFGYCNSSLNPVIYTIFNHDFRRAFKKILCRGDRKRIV

[8] = target: Voltage-dependent N-type calcium channel subunit alpha-1B (Rattus norvegicus, UniProt Q02294); type: functional
Sequence of Voltage-dependent N-type calcium channel subunit alpha-1B (Q02294 whole entry): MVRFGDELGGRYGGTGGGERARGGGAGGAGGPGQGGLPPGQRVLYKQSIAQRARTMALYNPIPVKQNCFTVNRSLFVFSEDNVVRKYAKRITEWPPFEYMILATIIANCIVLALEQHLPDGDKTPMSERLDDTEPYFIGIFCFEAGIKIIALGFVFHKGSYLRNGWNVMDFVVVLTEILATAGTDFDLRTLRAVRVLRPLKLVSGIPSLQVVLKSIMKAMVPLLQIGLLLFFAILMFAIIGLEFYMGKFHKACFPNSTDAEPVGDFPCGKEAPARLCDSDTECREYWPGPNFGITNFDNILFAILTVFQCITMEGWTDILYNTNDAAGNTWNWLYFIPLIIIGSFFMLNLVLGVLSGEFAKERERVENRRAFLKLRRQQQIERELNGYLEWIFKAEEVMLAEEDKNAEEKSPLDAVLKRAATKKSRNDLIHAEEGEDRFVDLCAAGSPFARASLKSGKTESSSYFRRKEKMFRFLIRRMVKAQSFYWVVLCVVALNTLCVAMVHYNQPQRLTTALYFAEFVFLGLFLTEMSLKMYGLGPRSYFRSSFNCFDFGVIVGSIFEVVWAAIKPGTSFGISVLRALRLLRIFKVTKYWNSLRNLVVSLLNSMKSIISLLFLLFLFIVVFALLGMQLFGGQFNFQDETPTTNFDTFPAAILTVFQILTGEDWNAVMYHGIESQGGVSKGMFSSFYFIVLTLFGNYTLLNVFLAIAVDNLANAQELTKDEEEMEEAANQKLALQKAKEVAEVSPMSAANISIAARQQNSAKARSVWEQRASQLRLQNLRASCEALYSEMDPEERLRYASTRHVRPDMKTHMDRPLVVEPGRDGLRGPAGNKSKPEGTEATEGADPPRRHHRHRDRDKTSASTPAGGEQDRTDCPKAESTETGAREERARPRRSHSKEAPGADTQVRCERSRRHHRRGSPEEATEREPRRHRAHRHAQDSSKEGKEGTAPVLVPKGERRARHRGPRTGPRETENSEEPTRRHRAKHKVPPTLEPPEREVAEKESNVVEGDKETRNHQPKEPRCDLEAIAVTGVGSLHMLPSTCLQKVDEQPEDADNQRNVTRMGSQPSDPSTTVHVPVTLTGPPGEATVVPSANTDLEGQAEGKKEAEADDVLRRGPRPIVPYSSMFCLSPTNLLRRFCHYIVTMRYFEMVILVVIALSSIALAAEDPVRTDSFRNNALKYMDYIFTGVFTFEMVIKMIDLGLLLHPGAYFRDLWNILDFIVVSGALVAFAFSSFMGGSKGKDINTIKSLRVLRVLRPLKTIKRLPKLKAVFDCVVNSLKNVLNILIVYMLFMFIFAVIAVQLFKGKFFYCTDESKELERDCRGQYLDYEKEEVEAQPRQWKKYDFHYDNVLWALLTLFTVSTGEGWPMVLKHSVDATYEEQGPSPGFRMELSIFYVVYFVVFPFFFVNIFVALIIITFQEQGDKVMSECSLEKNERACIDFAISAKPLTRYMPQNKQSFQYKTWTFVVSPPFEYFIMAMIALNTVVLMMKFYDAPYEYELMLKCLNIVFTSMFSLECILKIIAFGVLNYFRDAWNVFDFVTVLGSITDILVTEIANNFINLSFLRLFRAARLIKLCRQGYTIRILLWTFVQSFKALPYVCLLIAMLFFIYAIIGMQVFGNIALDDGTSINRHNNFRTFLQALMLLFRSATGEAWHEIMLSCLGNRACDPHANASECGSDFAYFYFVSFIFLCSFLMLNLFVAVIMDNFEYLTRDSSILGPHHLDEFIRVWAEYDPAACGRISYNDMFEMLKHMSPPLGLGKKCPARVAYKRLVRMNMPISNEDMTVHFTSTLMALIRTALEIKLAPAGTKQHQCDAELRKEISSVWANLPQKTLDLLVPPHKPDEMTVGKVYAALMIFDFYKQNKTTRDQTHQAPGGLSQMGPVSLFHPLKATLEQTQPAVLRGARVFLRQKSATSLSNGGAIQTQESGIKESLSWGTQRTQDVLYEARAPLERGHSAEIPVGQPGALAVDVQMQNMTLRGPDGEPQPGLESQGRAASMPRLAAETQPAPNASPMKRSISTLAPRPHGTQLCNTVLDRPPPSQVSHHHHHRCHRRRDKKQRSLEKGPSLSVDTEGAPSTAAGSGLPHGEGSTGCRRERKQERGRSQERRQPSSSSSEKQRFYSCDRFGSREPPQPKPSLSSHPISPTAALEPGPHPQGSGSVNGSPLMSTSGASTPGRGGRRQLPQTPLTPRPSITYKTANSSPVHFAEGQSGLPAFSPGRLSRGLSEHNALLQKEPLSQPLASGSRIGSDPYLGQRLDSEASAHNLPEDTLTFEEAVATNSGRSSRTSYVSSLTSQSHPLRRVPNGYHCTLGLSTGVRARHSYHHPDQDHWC

[9] = target: T4, Alpha-1A adrenergic receptor (Homo sapiens, UniProt P35348)
T4 sequence (P35348 whole entry): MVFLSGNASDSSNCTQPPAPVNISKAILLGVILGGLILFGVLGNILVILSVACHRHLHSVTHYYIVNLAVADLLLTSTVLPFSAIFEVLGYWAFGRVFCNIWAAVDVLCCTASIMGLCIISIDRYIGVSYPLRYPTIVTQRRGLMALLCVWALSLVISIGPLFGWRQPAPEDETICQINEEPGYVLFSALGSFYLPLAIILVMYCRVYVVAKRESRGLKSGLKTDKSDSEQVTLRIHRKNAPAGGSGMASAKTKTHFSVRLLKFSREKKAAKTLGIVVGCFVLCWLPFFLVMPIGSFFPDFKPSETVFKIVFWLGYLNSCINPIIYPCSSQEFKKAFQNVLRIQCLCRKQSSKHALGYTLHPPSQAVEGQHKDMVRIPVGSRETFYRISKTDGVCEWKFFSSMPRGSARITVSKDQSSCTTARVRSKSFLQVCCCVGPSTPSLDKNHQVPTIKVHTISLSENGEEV
Further: assay procedure not described here.

Row | SMILES | AC50 (Androgen receptor [1]) | AC50 (Androgen receptor [2]) | AC50 [3] | AC50 [4] | AC50 (Glucagon receptor) | AC50 [6] | AC50 (D(1A) dopamine receptor) | AC50 [7] | AC50 [8] | also measured
1 | C[N+](C)(C)CCOP(=O)([O-])OC[C@H](O)CO | > 30 µM | > 30 µM |  |  |  |  |  |  |  | 
2 | CN(C)C/C=C/C(=O)Nc1cc2c(Nc3ccc(F)c(Cl)c3)ncnc2cc1O[C@H]1CCOC1 [AFATINIB] | > 30 µM | > 30 µM | > 30 µM | > 50 µM |  |  |  |  |  | 
3 | CCC1(c2ccc(N)cc2)CCC(=O)NC1=O (centres undefined) [AMINOGLUTETHIMIDE] | > 30 µM | > 30 µM | > 30 µM |  |  |  |  |  |  | 
4 | CC1=C(C(=O)OC(C)C)C(c2cccc([N+](=O)[O-])c2)C(C(=O)OC2CN(C(c3ccccc3)c3ccccc3)C2)=C(N)N1 (centres undefined) [AZELNIDIPINE] |  |  |  | > 50 µM |  |  |  |  |  | 
5 | O=C(/C=C/c1cccc(S(=O)(=O)Nc2ccccc2)c1)NO [BELINOSTAT] |  |  |  |  | > 10 µM | > 10 µM | > 10 µM | > 10 µM | > 10 µM | AC50 [5]: > 10 µM; AC50 (D(4) dopamine receptor): > 10 µM; AC50 [9]: > 10 µM
6 | CC(O)(CS(=O)(=O)c1ccc(F)cc1)C(=O)Nc1ccc(C#N)c(C(F)(F)F)c1 (centres undefined) [BICALUTAMIDE] |  |  |  | > 30 µM | > 30 µM | > 10 µM | > 10 µM | > 10 µM | > 10 µM | AC50 [5]: > 30 µM; AC50 (D(4) dopamine receptor): > 10 µM; AC50 [9]: > 10 µM
7 | O=C(O)COCCN1CCN(C(c2ccccc2)c2ccc(Cl)cc2)CC1 (centres undefined) [CETIRIZINE] |  |  |  | > 30 µM | > 30 µM |  |  | > 10 µM | > 10 µM | AC50 [5]: > 30 µM; AC50 (D(4) dopamine receptor): > 10 µM; AC50 [9]: > 10 µM
8 | NC[C@H]1CC[C@H](C(=O)Oc2ccc(CCC(=O)O)cc2)CC1 [CETRAXATE] |  |  | > 30 µM |  |  |  |  |  |  | 
9 | C[C@H](CCC(=O)O)[C@H]1CC[C@H]2[C@@H]3[C@H](O)C[C@@H]4C[C@H](O)CC[C@]4(C)[C@H]3C[C@H](O)[C@]12C [CHOLIC ACID] |  |  |  | > 50 µM |  |  |  |  |  | 
10 | CC(=O)O[C@]1(C(C)=O)CC[C@H]2[C@@H]3C=C(Cl)C4=CC(=O)[C@@H]5C[C@@H]5[C@]4(C)[C@H]3CC[C@@]21C [CYPROTERONE ACETATE] |  |  |  |  |  | > 10 µM | > 10 µM | > 10 µM | > 10 µM | 
11 | C[C@@H]1C[C@H]2[C@@H]3C[C@H](F)C4=CC(=O)C=C[C@]4(C)[C@@]3(F)[C@@H](O)C[C@]2(C)[C@@]1(OC(=O)c1ccco1)C(=O)SCF [FLUTICASONE FUROATE] |  |  |  |  | > 10 µM | > 10 µM | > 10 µM | > 10 µM | > 10 µM | AC50 (D(4) dopamine receptor): > 10 µM; AC50 [9]: > 10 µM
12 | CNCCc1ccc(OC(=O)C(C)C)c(OC(=O)C(C)C)c1 [IBOPAMINE] | > 30 µM | > 30 µM | > 30 µM |  |  |  |  |  |  | 
13 | CN(C)CCCN1c2ccccc2CCc2ccccc21 [IMIPRAMINE] |  |  |  |  | > 30 µM | 0.319 µM | 3.2 µM | > 10 µM | > 10 µM | AC50 [5]: > 30 µM; AC50 (D(4) dopamine receptor): 5.56 µM; AC50 [9]: 0.239 µM
14 | CCOC(=O)C1=C(C)NC(C)=C(C(=O)OCC)C1c1ccccc1/C=C/C(=O)OC(C)(C)C [LACIDIPINE] | > 30 µM | > 30 µM |  | > 50 µM |  |  |  |  |  | 
15 | CN(Cc1cnc2nc(N)nc(N)c2n1)c1ccc(C(=O)N[C@@H](CCC(=O)O)C(=O)O)cc1 [METHOTREXATE] |  |  |  |  | > 30 µM | > 10 µM | > 10 µM | > 10 µM | > 10 µM | AC50 [5]: > 30 µM
16 | OC[C@H]1O[C@@H](n2cnc3c2NC=NC[C@H]3O)C[C@@H]1O [PENTOSTATIN] |  |  | > 30 µM |  |  |  |  |  |  | 
17 | Cc1cccc(C)c1NC(=O)CC12CCCN1CCC2 [PILSICAINIDE] |  |  |  | > 50 µM |  |  |  |  |  | 
18 | CC(C)c1cccc(C(C)C)c1O [PROPOFOL] | > 30 µM |  | 2 µM |  |  |  |  |  |  | 
19 | CN[C@@H](C)[C@@H](O)c1ccccc1 [PSEUDOEPHEDRINE] |  |  |  |  | > 30 µM |  | > 10 µM | > 10 µM | > 10 µM | AC50 [5]: > 30 µM; AC50 (D(4) dopamine receptor): > 10 µM; AC50 [9]: > 10 µM
20 | CCCN1CC(NS(=O)(=O)N(CC)CC)CC2Cc3c(O)cccc3CC21 (centres undefined) [QUINAGOLIDE] | > 30 µM | > 30 µM |  |  |  | 0.324 µM |  |  |  | 
21 | O=C1OC(OC(=O)c2cccnc2Nc2cccc(C(F)(F)F)c2)c2ccccc21 (centres undefined) [TALNIFLUMATE] | > 30 µM | > 30 µM | > 30 µM |  |  |  |  |  |  | 
22 | O=S1(=O)CCN(CN2CCS(=O)(=O)NC2)CN1 [TAUROLIDINE] | > 30 µM | > 30 µM | > 30 µM |  |  |  |  |  |  | 
23 | CCOC(=O)c1c(CSc2ccccc2)n(C)c2cc(Br)c(O)c(CN(C)C)c12 [UMIFENOVIR] | > 30 µM | > 30 µM |  |  |  |  |  |  |  | 
